Measurements as given in patent US20250228865A1, “COMPOUNDS FOR ENHANCING READ THROUGH OF GENES CONTAINING PREMATURE TERMINATION CODONS AND METHODS FOR MAKING AND USING THE SAME” (Sanofi US Services Inc., priority 2022, published 2025).

Tests used:
[1] = test system: recombinant human CFTR carrying the premature stop codon (PTC) mutation G542X; assay: CFTR-PTC mutant translation readthrough, Nanoluc tagged CFTR luminescence (G542X cell line); type: cell-based; conditions: in combination with G418, G542X cell line; for CFTR G542X ACTIVITY Fold 10 μM G-418: fold over 10 μM G-418; for EC50: 16HBE cells
Description: (§1) 16HBE human bronchial epithelial cells (stably over-expressing recombinant human CFTR carrying the premature stop codon (PTC) mutation G542X or R1162X along with a Nanoluc tag incorporated into the CFTR channel within extracellular loop 4 in G542X cell line or C-terminus end in the R1162X cell line were seeded at 0.01×10^6 cells/well and grown in Minimal Essential Medium (MEM) as monolayers in 384 well plates and incubated at 37° C. with 5% CO2. Media was changed every other day until day of experiment. Agents to be evaluated were made up in separate 384 well, polypropylene plates at a 2X the final desired test concentration. Test agent 10-point concentration response curves were constructed using the Labcyte Echo 555 acoustic dispenser. Test agents were typically tested at a max final test concentrations of 50 μM with sequential 2-fold lower concentrations below this in the absence or presence of a fixed 10 μM concentration of the aminoglycoside G418 made up in MEM growth media (reduced Serum Media+HEPES Buffer+2.4 g/L Sodium Bicarbonate+L-Glutamine containing CFTR corrector VX-809 (3 μM)). Treatment with 10 μM G418 alone produced approximately 10% of the response observed with a maximally effective concentration of G418 (typically 125-250 μM). Test agent effects in presence of 10 μM G418 were compared to control wells on the plate containing a maximally effective concentration of G418 (typically 125-250 μM) made up in the same media. 25 ul of test agents/control solutions were transferred from the compound plate to the cell plate, which already contained 25 ul/well of cell plating media, using an Integra Viaflo 384. Cell plates were incubated with the compounds for 48 hours, at which time they were processed using Nanoluc luminescence Kit (Promega Nano-Glo Live Cell Assay System) to measure CFTR-PTC mutant translation readthrough. Luminescence was measured as follows. Cell plates were removed from the incubator and allowed to equilibrate to room temperature for 20 minutes. Media was removed from all wells and the plates were blotted to remove excess remaining volume. Nano-Glo Live Cell Substrate was diluted 1:20 in the appropriate amount of Nano-Glo LCS Dilution Buffer to accommodate the number of cell plates being tested. The substrate/dilution buffer mix was then diluted 1:3 with MEM media to make the appropriate volume for the number of plates being tested. The substrate/dilution buffer/OptiMEM mix was added across the Nanoluc testing cell plates and the plates were read for luminescence signal immediately. Test agent effects on CFTR translation readthrough was determined by normalizing any observed increase in luminescence induced by 48 hours pretreatment with test compound to the magnitude of luminescence increase produced by pretreatment with a maximally effective concentration of the reference readthrough enhancing agent G418 (125-250 μM).

[2] = test system: recombinant human CFTR carrying the premature stop codon (PTC) mutation R1162X; assay: CFTR-PTC mutant translation readthrough, Nanoluc tagged CFTR luminescence (R1162X cell line); type: cell-based; conditions: for CFTR R1162X ACTIVITY Fold 10 μM G-418: fold over 10 μM G-418, in combination with G418; for EC50: in combination with G418, 16HBE cells, read-out: CFTR R1162X ACTIVITY EC50
Description: as §1

Compound | CFTR G542X ACTIVITY Fold 10 μM G-418 [1] | EC50 [1] [µM] | CFTR R1162X ACTIVITY Fold 10 μM G-418 [2] | EC50 [2] [µM]
O=C(CO)N1CCN(c2ncc(OCc3c(Cl)cccc3Cl)cn2)CC1 | A′ (A′ = ≥10X) | 1 to 10 | A′ (A′ = ≥10X) | 1 to 10
Cc1cccc(C(F)(F)F)c1COc1ccc(-n2cnc(C(=O)O)n2)cc1 | A′ (A′ = ≥10X) | 1 to 10 | A′ (A′ = ≥10X) | 1 to 10
CNC(=O)C1CCN(c2ncc(OCc3c(Cl)cccc3Cl)cn2)CC1 | A′ (A′ = ≥10X) | 1 to 10 | A′ (A′ = ≥10X) | 1 to 10
Cc1cccc(C(F)(F)F)c1COc1cnc(N2C(=O)CN(C)C2=O)nc1 | B′ (B′ = ≥5X to <10X) | > 10 | C′ (C′ = <5X) | > 10
OCCOCCN1CCN(c2ncc(OCc3c(Cl)cccc3Cl)cn2)CC1 | A′ (A′ = ≥10X) | < 1 | A′ (A′ = ≥10X) | < 1
COc1cccc(Cl)c1COc1ccc(N2CC(CO)OC2=O)cc1 (stereo not shown) | C′ (C′ = <5X) | > 10 | C′ (C′ = <5X) | > 10
O=C1OC(CO)CN1c1ccc(OCc2c(Cl)cccc2Cl)c(F)c1 (stereo not shown) | B′ (B′ = ≥5X to <10X) | 1 to 10 | C′ (C′ = <5X) | 1 to 10
C=C1NC(=O)N(c2ccc(OCc3c(Cl)cccc3Cl)cn2)C1=O | B′ (B′ = ≥5X to <10X) | 1 to 10 | B′ (B′ = ≥5X to <10X) | 1 to 10
CC(C)C1NC(=O)N(c2ncc(OCc3c(Cl)cccc3Cl)cn2)C1=O (stereo not shown) | A′ (A′ = ≥10X) | > 10 | B′ (B′ = ≥5X to <10X) | > 10
O=C1NC2(CCCC2)C(=O)N1c1ncc(OCc2c(Cl)cccc2Cl)cn1 | A′ (A′ = ≥10X) | 1 to 10 | A′ (A′ = ≥10X) | > 10
Cc1cccc(C(F)(F)F)c1COc1cnc(N2CC[S+]([O-])CC2)nc1 | A′ (A′ = ≥10X) | 1 to 10 | A′ (A′ = ≥10X) | 1 to 10
O=C1CN(c2ncc(OCc3c(Cl)cccc3Cl)cn2)CC(CO)N1 (stereo not shown) | A′ (A′ = ≥10X) | 1 to 10 | A′ (A′ = ≥10X) | 1 to 10
CN(C)C(=O)N1CCN(c2ncc(OCc3c(Cl)cccc3Cl)cn2)CC1 | B′ (B′ = ≥5X to <10X) | < 1 | A′ (A′ = ≥10X) | < 1
NC(=O)N1CCN(c2ncc(OCc3c(Cl)cccc3Cl)cn2)CC1CO (stereo not shown) | A′ (A′ = ≥10X) | < 1 | A′ (A′ = ≥10X) | < 1
CC1CN(c2ncc(OCc3c(Cl)cccc3Cl)cn2)CCN1C(N)=O (stereo not shown) | A′ (A′ = ≥10X) | < 1 | A′ (A′ = ≥10X) | < 1
CNC(=O)N1CCN(c2ncc(OCc3c(Cl)cccc3Cl)cn2)CC1 | A′ (A′ = ≥10X) | < 1 | A′ (A′ = ≥10X) | < 1
Cc1cccc(C(F)(F)F)c1COc1ccc(N2CC(CO)OC2=O)cc1 (stereo not shown) | A′ (A′ = ≥10X) | 1 to 10 | A′ (A′ = ≥10X) | 1 to 10
Cc1cccc(C(F)(F)F)c1COc1cnc(N2C(=O)NC(C)(C)C2=O)nc1 | A′ (A′ = ≥10X) | 1 to 10 | A′ (A′ = ≥10X) | 1 to 10
Cc1cccc(C(F)(F)F)c1COc1cnc(N2CCN3CCOCC3C2)nc1 (stereo not shown) | A′ (A′ = ≥10X) | < 1 | A′ (A′ = ≥10X) | < 1

Compound | CFTR G542X ACTIVITY Fold 10 μM G-418 [1] | EC50 [1] [µM] | CFTR R1162X ACTIVITY Fold 10 μM G-418 [2] | EC50 [2] [µM]
CC(=O)N[C@H]1CCN(c2ncc(OCc3c(Cl)cccc3Cl)cn2)C1 | A′ (A′ = ≥10X) | 1 to 10 | A′ (A′ = ≥10X) | 1 to 10
CC(=O)NCC1CN(c2ncc(OCc3c(Cl)cccc3Cl)cn2)CCO1 (stereo not shown) | A′ (A′ = ≥10X) | < 1 | A′ (A′ = ≥10X) | 1 to 10
OCc1ncn(-c2ccc(OCc3c(Cl)cccc3C(F)(F)F)cc2)n1 | A′ (A′ = ≥10X) | < 1 | A′ (A′ = ≥10X) | 1 to 10
CCc1cccc(C(F)(F)F)c1COc1cnc(-n2cnc(CO)c2)nc1 | A′ (A′ = ≥10X) | < 1 | A′ (A′ = ≥10X) | < 1
CCc1cccc(C(F)(F)F)c1COc1cnc(-n2ccc(CO)n2)nc1 | A′ (A′ = ≥10X) | < 1 | A′ (A′ = ≥10X) | < 1
CC1CC(CO)CN1c1ncc(OCc2c(Cl)cccc2Cl)cn1 (stereo not shown) | A′ (A′ = ≥10X) | 1 to 10 | A′ (A′ = ≥10X) | 1 to 10
CC(=O)N[C@H](CO)C(=O)Nc1ccc(OCc2c(Cl)cccc2Cl)cn1 | C′ (C′ = <5X) | > 10 | C′ (C′ = <5X) | > 10
NC(=O)N1C[C@@H]2CN(c3ncc(OCc4c(Cl)cccc4Cl)cn3)C[C@@H]2C1 | A′ (A′ = ≥10X) | 1 to 10 | B′ (B′ = ≥5X to <10X) | 1 to 10
CC1(C)CN(c2ncc(OCc3c(Cl)cccc3Cl)cn2)CC(CO)O1 (stereo not shown) | A′ (A′ = ≥10X) | 1 to 10 | A′ (A′ = ≥10X) | 1 to 10
O=C1N[C@@H](CO)CN1c1ccc(OCc2c(Cl)cccc2Cl)cn1 | A′ (A′ = ≥10X) | 1 to 10 | A′ (A′ = ≥10X) | 1 to 10
O=C1N[C@H](CO)CN1c1ccc(OCc2c(Cl)cccc2Cl)cn1 | A′ (A′ = ≥10X) | < 1 | A′ (A′ = ≥10X) | < 1
Cc1cccc(C(F)(F)F)c1COc1ccc(N2C[C@@H](CO)NC2=O)nc1 | A′ (A′ = ≥10X) | < 1 | A′ (A′ = ≥10X) | < 1
O=C1N[C@H](CO)C(=O)N1c1ccc(OCc2c(Cl)cccc2Cl)cn1 | A′ (A′ = ≥10X) | > 10 | B′ (B′ = ≥5X to <10X) | > 10
OC[C@H]1CN(c2ncc(OCc3c(Cl)cccc3C(F)(F)F)cn2)CCO1 | A′ (A′ = ≥10X) | < 1 | A′ (A′ = ≥10X) | < 1
Cc1cccc(C(F)(F)F)c1COc1cnc(N2CCO[C@@H](CO)C2)nc1 | A′ (A′ = ≥10X) | < 1 | A′ (A′ = ≥10X) | < 1
COC(=O)c1ncn(-c2ccc(OCc3c(C)cccc3C(F)(F)F)cc2)n1 | A′ (A′ = ≥10X) | < 1 | A′ (A′ = ≥10X) | 1 to 10
COC(=O)C1CN(c2ncc(OCc3c(Cl)cccc3Cl)cn2)CC(=O)N1 (stereo not shown) | A′ (A′ = ≥10X) | > 10 | B′ (B′ = ≥5X to <10X) | > 10
Clc1cccc(Cl)c1COc1cnc(N2C[C@H]3COC[C@H]3C2)nc1 | A′ (A′ = ≥10X) | 1 to 10 | A′ (A′ = ≥10X) | 1 to 10
